Results published in ChEMBL document CHEMBL4819148, “Anti-protozoal and anti-fungal evaluation of 3,5-disubstituted 1,2-dioxolanes” (Bioorg Med Chem Lett, 2021).
≈ marks a conversion by molar mass, not a printed value.

Experiments:
Candida albicans [1] = experiment: Antifungal activity against wild type Candida albicans; assay type: functional
Plasmodium falciparum [2] = experiment: Antimalarial activity against Plasmodium falciparum; assay type: functional, organism-based
Plasmodium falciparum [3] = experiment: Antimalarial activity against Plasmodium falciparum 3D7 assessed as inhibition of parasite growth; assay type: functional, organism-based
Candida albicans [4] = experiment: Antifungal activity against Candida albicans CAAL93 assessed as reduction in fungal growth; assay type: functional, organism-based
Aspergillus fumigatus = experiment: Antifungal activity against Aspergillus fumigatus ASFU76 assessed as reduction in fungal growth after; assay type: functional, organism-based
Leishmania donovani [5] = experiment: Antileishmanial activity against axenic amastigote form of Leishmania donovani LV9 assessed as reduction in parasite growth; assay type: functional, organism-based
[6] = Selectivity index, ratio of CC50 for cytotoxicity against HUVEC cells to IC50 for antileishmanial activity against axenic amastigote form of Leishmania donovani LV9; assay type: toxicity, cell-based; conditions: human, read-out: Ratio CC50/IC50
[7] = Cytotoxicity against HUVEC cells assessed as reduction in cell viability; assay type: cell-based; conditions: human
[8] = Selectivity index, ratio of CC50 for cytotoxicity against HUVEC cells to IC50 for antiplasmodial activity against Plasmodium falciparum 3D7; assay type: toxicity, cell-based; conditions: human, read-out: Ratio CC50/IC50
Leishmania donovani [9] = experiment: Antileishmanial activity against intramacrophage form of Leishmania donovani LV9 assessed as reduction in parasite growth; assay type: functional, organism-based

SMILES	MIC (Candida albicans [1]) [µM]	EC50 (Plasmodium falciparum [2]) [µM]	IC50 (Plasmodium falciparum [3]) [µM]	IC50 (Candida albicans [4]) [µM]	IC50 (Aspergillus fumigatus) [µM]	IC50 (Leishmania donovani [5]) [µM]	selectivity ratio [6]	CC50 [7] [µM]	selectivity ratio [8]	IC50 (Leishmania donovani [9]) [µM]
C=C/C=C/C=C\C=C\C=C\C=C/C=C\C[C@H]1C[C@@H](CC(=O)O)OO1	0.61 (≈ 0.2 µg/mL)	0.052	–	–	–	–	–	–	–	–
C=CCC1CC(CCO[Si](c2ccccc2)(c2ccccc2)C(C)(C)C)OO1 (mixture of isomers)	–	–	> 1	> 100	> 100	> 100	–	–	–	–
CCCCCCC1CC(C#N)OO1 (mixture of isomers)	–	–	> 1	> 100	> 100	42.9	0.26	10.9	< 10	> 100
CCCCCCCCCCCCCCCCOP(=O)([O-])OCC[N+](C)(C)C [MILTEFOSINE]	–	–	–	–	–	1.7	32	54.3	–	0.61
CCCCCCC1CC(C/C=C\Br)OO1 (mixture of isomers)	–	–	> 1	> 100	> 100	1.55	1.48	2.29	< 2	33.6
CCCCCCC1CC(C/C=C\Cl)OO1 (mixture of isomers)	–	–	0.15	33.4	> 100	1.5	4.09	6.13	40	28.4
CCCCCCC1CCOO1 (configuration not stated)	–	–	> 1	> 100	> 100	49.8	0.2	10.6	< 10.6	–
CCCCCCC1CC(CC(=O)SCC)OO1 (mixture of isomers)	–	–	0.25	> 100	> 100	1.88	1.01	1.89	7	38.9
CCCCCCC1CC(OC(C)=O)OO1 (mixture of isomers)	–	–	> 1	> 100	> 100	70.7	0.82	57.8	< 57	> 100
CCCCCCC1CC(O)OO1 (mixture of isomers)	–	–	> 1	> 100	> 100	> 100	< 0.72	71.7	< 71	> 100
CC(=O)OC1CC(C(C)C)OO1 (mixture of isomers)	–	–	0.1	> 100	> 100	> 100	< 0.59	59.3	–	32.9
CCCCCCC1CC(CC(=O)c2ccccc2)OO1 (mixture of isomers)	–	–	0.37	> 100	> 100	> 100	< 0.09	9.02	24	–
C[C@@H]1[C@H](O)[C@@H](C)/C=C/C=C/C=C/C=C/C=C/C=C/C=C/[C@H](O[C@@H]2O[C@H](C)[C@@H](O)[C@H](N)[C@@H]2O)C[C@@H]2O[C@](O)(C[C@@H](O)C[C@@H](O)[C@H](O)CC[C@@H](O)C[C@@H](O)CC(=O)O[C@H]1C)C[C@H](O)[C@H]2C(=O)O [AMPHOTERICIN B]	–	–	–	–	0.33	–	–	–	–	–
C=CCC1CC(C2CCCCC2)OO1 (mixture of isomers)	–	–	> 1	> 100	> 100	6.78	–	–	–	–
CC(C)(C)C1CC(O)OO1 (mixture of isomers)	–	–	0.34	> 100	> 100	> 100	< 0.12	12.2	35	> 100
CC(=O)OC1CC(C2CCCCC2)OO1 (mixture of isomers)	–	–	> 1	> 100	> 100	56.6	–	–	–	–
CC(C)C1CC(O)OO1 (mixture of isomers)	–	–	0.12	> 100	> 100	> 100	< 0.28	28.2	234	> 100
CCCCCCC1CC(CC(=O)C(C)(C)C)OO1 (mixture of isomers)	–	–	> 1	> 100	> 100	4.42	1.38	6.09	< 6	> 100
CCN(CC)CCCC(C)Nc1ccnc2cc(Cl)ccc12 (configuration not stated) [CHLOROQUINE]	–	–	–	–	–	–	–	31.5	–	–
C=CCC1CC(CCCCCC)OO1 (mixture of isomers)	–	–	0.1	25.2	> 100	> 100	< 0.01	0.7	7	–
CCCCCCCCCCCCCCC[C@H]1C[C@@H](CCO)OO1 (mixture of isomers)	–	–	> 1	> 100	> 100	5.57	–	–	–	–
CC(=O)OC1CC(C(C)(C)C)OO1 (mixture of isomers)	–	–	0.02	> 100	> 100	> 100	< 0.13	12.6	628	44.3
CCCCCCC1CC(CC(=O)Sc2ccccc2)OO1 (mixture of isomers)	–	–	> 1	> 100	> 100	2.2	0.83	1.82	< 1.8	> 100
CCCCCCCCCCCCCCC[C@H]1C[C@@H](CC(=O)O)OO1	–	–	> 1	> 100	> 100	6.16	–	–	–	–
C=C(C)CC1CC(CCCCCC)OO1 (mixture of isomers)	–	–	0.17	35.7	35.7	6.82	1.71	11.7	68	> 100
OC(Cn1cncn1)(Cn1cncn1)c1ccc(F)cc1F [FLUCONAZOLE]	–	–	–	0.3	–	–	–	–	–	–
CC(=O)OC1CC(CCO[Si](c2ccccc2)(c2ccccc2)C(C)(C)C)OO1 (mixture of isomers)	–	–	> 1	> 100	> 100	> 100	–	–	–	–
